Test results published in patent US20260306460A1, “COMPOSITION FOR REMOVING AND INHIBITING SENESCENT CELLS, AND USES THEREOF” (LIFECEUTIX CO., LTD., priority 2023, published 2026).

Test system: naturally aged C57BL6J mice
Type: in vivo, mouse
Conditions: mouse, in vivo

For `C[C@]12C=C(C#N)C(=O)C3(CC=CC3)C1=CC[C@@H]1[C@@H]2CC[C@]2(C)C(=O)CC[C@@H]12` [LX-2308], the wound/damage healing improvement was “damage treatment and recovery”.

For `C=C(C)[C@@H]1CC[C@]2(C(=O)NCC)CC[C@]3(C)[C@H](CCC4[C@@]5(C)C=C(C#N)C(=O)C(C)(C)[C@@H]5CC[C@]43C)[C@@H]12` (some centres unmarked) [LX-2311], the wound/damage healing improvement was “damage treatment and recovery”.

For `C[C@H]1C(=O)C(C#N)=C[C@@]2(C)c3c(c(-c4ccccc4)nn3-c3ccc(-c4cccc(CO)c4)cc3)CC[C@H]12` [LX-2505], the wound/damage healing improvement was “damage treatment and recovery”.

For `CC1(C)CC[C@]2(NS(C)(=O)=O)CC[C@]3(C)[C@H](C(=O)C[C@@H]4[C@@]5(C)C=C(C#N)C(=O)C(C)(C)[C@@H]5CC[C@]43C)[C@@H]2C1` [LX-2306], the wound/damage healing improvement was “damage treatment and recovery”.

For `C[C@@H]1C(=O)C(C#N)=C[C@]2(c3ccccc3)c3c(c(-c4cccnc4)nn3C)CC[C@@H]12` [LX-2407, (5aS,6S,9aR)-1,6-dimethyl-7-oxo-9a-phenyl-3-(pyridin-3-yl)-4,5,5a,6,7,9a-hexahydro-1H-benzo[g]indazole-8-carbonitrile], the wound/damage healing improvement was “damage treatment and recovery”.

`CC1(C)CC[C@]2(C(N)=O)CC[C@@]3(C)[C@]4(C)CC[C@H]5C(C)(C)C(=O)C(C#N)=C[C@]5(C)C4=CC(=O)[C@]3(O)[C@@H]2C1` [LX-2406] was tested, and the wound/damage healing improvement was “damage treatment and recovery”.

`C[C@@H]1C(=O)C(C#N)=C[C@]2(C)C3=CC(=O)[C@@H]4[C@@H]5CC(C)(C)CC[C@]5(c5nnc(CF)o5)CC[C@@]4(C)[C@]3(C)CC[C@@H]12` [LX-2507] was tested, and the wound/damage healing improvement was “damage treatment and recovery”.

With `CC1(C)CC[C@]2(C(=O)NO)CC[C@]3(C)[C@H](C(=O)C[C@@H]4[C@@]5(C)C=C(C#N)C(=O)C(C)(C)[C@@H]5CC[C@]43C)[C@@H]2C1` [LX-2309] the wound/damage healing improvement was “damage treatment and recovery”.

In the case of `COC(=O)[C@]12CCC(C)(C)C[C@H]1[C@H]1C(=O)C[C@@H]3[C@@]4(C)C=C(C#N)C(=O)C(C)(C)[C@@H]4CC[C@@]3(C)[C@]1(C)CC2` [LX-2301], the wound/damage healing improvement is reported as “damage treatment and recovery”.

`CC1(C)CC[C@]2(C(=O)NCC(F)(F)F)CC[C@]3(C)[C@H](C(=O)C[C@@H]4[C@@]5(C)C=C(C#N)C(=O)C(C)(C)[C@@H]5CC[C@]43C)[C@@H]2C1` [LX-2302, Dihydro-CDDO-Trifluoroethyl Amide] was tested, and the wound/damage healing improvement was “damage treatment and recovery”.

In the case of `C[C@@H]1[C@H]2[C@H]3C(=O)C=C4[C@@]5(C)C=C(C#N)C(=O)C(C)(C)[C@@H]5CC[C@@]4(C)[C@]3(C)CC[C@@]2(c2nc(CCO)no2)CC[C@H]1C` [LX-2511], the wound/damage healing improvement is reported as “damage treatment and recovery”.
